Laboratory results reported in patent publication US20100021895A1, “Vectors for Inducing Homozygous Mutations and Methods of Using Same” (priority 2006, published 2010).

Columns and labels:
[1] = system: mouse embryonic stem cell clones, each containing a neomycin resistance gene (Neo) inserted by the GTR1.3 gene trap retrovirus; experiment: Carcinogen-induced LOH: frequency of colony formation in 2.0 mg/ml G418; assay type: cell-based; conditions: for fold increase of frequency of colony formation: 2 mg/ml G418 0.5 mM MNU
Method: Carcinogen-induced LOH was measured in a panel of 53 mouse embryonic stem cell clones, each containing a neomycin resistance gene (Neo) inserted into a different cellular gene (FIG. 9) by the GTR1.3 gene trap retrovirus. Gene entrapment by GTR1.3 involves selection for inserted Neo sequences that can splice to the 3′ ends of cellular genes (Lin et al.,). The disrupted genes were identified by sequencing Neo-gene fusion transcripts and were localized on the mouse genome. Previous studies have shown that cells homozygous for GTR1.3-induced mutations can be selected from heterozygous cells simply by selecting for resistance to higher concentrations of G418, a method first shown to select for homozygous mutations induced by gene targeting (15). Mitotic recombination appears to be the preferred mechanism of spontaneous LOH involving Neo genes inserted in ES cells (17) and LOH involving other genes and cell types in vivo (12, 13). LOH doubles the number of Neo genes per cell and thus allows moderately resistant cells to acquire resistance to higher concentrations of G418. The frequencies of spontaneous LOH measured at the 53 different sites ranged from 1.3×10^−5 to 1.2×10^−4 (Table 3), similar to those reported for other inserted neomycin resistance genes (15, 17) in ES cells and for loci such as TK and APRT in other cell types (12, 13).
A variety of chemical agents were tested for their ability to enhance the frequencies at which mutant cells survive in 2.0 mg/ml G418. Methyl-nitrosurea (MNU) is an alkylating agent that produces a variety of mono-methylated DNA adducts, hydroxyurea (HU) stalls DNA replication complexes, doxorubicin interferes with DNA synthesis, methothrexate is a competitive inhibitor of dihydrofolate reductase but is not genotoxic, diepoxybutane and mitomycin C induce inter-strand DNA crosslinks, UV irradiation causes intra- and inter-strand pyrimidine dimmers, and ethidium bromide intercalates between DNA strands to damage DNA (For additional information about these agents see http://toxnet.nlm.nih.gov and http://lisntweb.swan.ac.uk/cmgt/index.htm). […] The fold-increase for MNU and HU ranged from 39-123 and 18-68, respectively (Table 3). The optimal concentrations of each agent to stimulate colony formation with minimal toxicity (<5% loss of cell viability) were determined in advance (FIG. 13). […] Each of these agents was tested two or more times on at least 25 entrapment lines.
Serially diluted cells were plated onto 150 mm plates containing drug-free media and allowed to attach overnight. Unattached cells were removed and media containing the indicated concentrations of methyl-nitrosourea, hydroxyurea, ethidium bromide, doxorubicin, methotrexate, diepoxybutane, or mitomycin C was put onto cells for 4 hours (or cells were exposed to ultraviolet light in the absence of media and allowed to recover in drug-free media for 4 hours). Cells were then rinsed twice with drug-free media and selection media containing 0.0, 0.3, or 2.0 mg/ml G418 was put onto cells. After 12 days of selection, the number of colonies surviving was counted and the frequency of colony formation was determined by dividing the number of colonies obtained from 2.0 mg/ml G418 selection to that obtained from parallel experiments with 0.3 mg/ml G418 selection. TK gene loss was assessed following selection in media containing 2 μg/ml gancyclovir.
Table 3. The frequency of colony formation in high concentrations of G418. The frequency of colony formation is listed for all 53 clones examined. Frequency was determined by dividing the number of colonies surviving 2.0 mg/ml G418 selection to the number surviving parallel experiments with 0.3 mg/ml G418 selection, and is the average of at least 3 independent experiments for each clone. Standard deviations, which ranged from 5 to 70% of the mean values, have been omitted for clarity. […]

[2] = system: HSV thymidine kinase (TK) gene in cells containing an entrapment mutation in the Hesx1 gene; experiment: TK gene loss, selection in gancyclovir; assay type: cell-based, mouse

SMILES: CN(N=O)C(N)=O [MNU, methyl-nitrosourea]
- number of colonies surviving in high G418 ([1]; 0.5 mM MNU or 0.25 mM HU (FIG. 10)): dramatically increased
- fold-increase of colonies surviving in high G418, range over clones ([1]; 0.5 mM MNU, Table 3 clones): 39-123 fold
- fold increase of frequency of colony formation ([1]; clone b2p1-a5 (12C3)): (+61-fold)
- fold increase of frequency of colony formation ([1]; clone b2p1-a9 (2H1)): (+53-fold)
- fold increase of frequency of colony formation ([1]; clone b2p1-b4 (9E1)): (+53-fold)
- fold increase of frequency of colony formation ([1]; clone b2p1-b9 (4B1)): (+59-fold)
- fold increase of frequency of colony formation ([1]; clone b2p1-c6 (19A)): (+39-fold)
- fold increase of frequency of colony formation ([1]; clone b2p1-d3 (19C1)): (+41-fold)
- fold increase of frequency of colony formation ([1]; clone b2p1-d8 (4D2.3)): (+52-fold)
- fold increase of frequency of colony formation ([1]; clone b2p1-d9 (7E3)): (+75-fold)
- fold increase of frequency of colony formation ([1]; clone b2p1-d10 (9A1)): (+76-fold)
- fold increase of frequency of colony formation ([1]; clone b2p1-e3 (4D2.3)): (+54-fold)
- fold increase of frequency of colony formation ([1]; clone b2p1-e10 (19C1)): (+54-fold)
- fold increase of frequency of colony formation ([1]; clone b2p1-f3 (17E1.3)): (+51-fold)
- fold increase of frequency of colony formation ([1]; clone b2p1-f10 (3F2.1)): (+91-fold)
- fold increase of frequency of colony formation ([1]; clone b2p1-f12 (1H5)): (+77-fold)
- fold increase of frequency of colony formation ([1]; clone b2p1-h1 (7A2)): (+63-fold)
- fold increase of frequency of colony formation ([1]; clone b2p1-h5 (1H5)): (+75-fold)
- fold increase of frequency of colony formation ([1]; clone b2p1-h8 (6A3.3)): (+68-fold)
- fold increase of frequency of colony formation ([1]; clone b3p1-h1 (18E2)): (+55-fold)
- fold increase of frequency of colony formation ([1]; clone b3p3-a4 (4A5)): (+78-fold)
- fold increase of frequency of colony formation ([1]; clone b3p3-a9 (4A5)): (+49-fold)
- fold increase of frequency of colony formation ([1]; clone b3p3-b6 (3F1)): (+60-fold)
- fold increase of frequency of colony formation ([1]; clone b3p3-c8 (14A3)): (+73-fold)
- fold increase of frequency of colony formation ([1]; clone b3p3-c12 (5G2)): (+29-fold)
- fold increase of frequency of colony formation ([1]; clone b3p3-d4 (1C3)): (+43-fold)
- fold increase of frequency of colony formation ([1]; clone b3p3-d8 (1C2)): (+123-fold)
- fold increase of frequency of colony formation ([1]; clone b3p3-d9 (4E2)): (+89-fold)
- fold increase of frequency of colony formation ([1]; clone b3p3-g6 (10C2)): (+59-fold)
- fold increase of frequency of colony formation ([1]; clone b3p3-g10 (4E1)): (+58-fold)
- fold increase of frequency of colony formation ([1]; clone b3p3-h2 (19C1)): (+73-fold)
- fold increase of frequency of colony formation ([1]; clone b3p3-h4 (5E2)): (+70-fold)
- fold increase of frequency of colony formation ([1]; clone b3p3-h8 (19A)): (+105-fold)
- fold increase of frequency of colony formation ([1]; clone b3p4-a1 (4A4)): (+69-fold)
- fold increase of frequency of colony formation ([1]; clone b3p4-a5 (3B)): (+47-fold)
- fold increase of frequency of colony formation ([1]; clone b3p4-b1 (3A2)): (+45-fold)
- fold increase of frequency of colony formation ([1]; clone b3p4-b2 (11B1.3)): (+54-fold)
- fold increase of frequency of colony formation ([1]; clone b3p4-b8 (4C6)): (+63-fold)
- fold increase of frequency of colony formation ([1]; clone b3p4-b12 (3A1)): (+52-fold)
- fold increase of frequency of colony formation ([1]; clone b3p4-c1 (17B3)): (+69-fold)
- fold increase of frequency of colony formation ([1]; clone b3p4-c2 (8C3)): (+76-fold)
- fold increase of frequency of colony formation ([1]; clone b3p4-c9 (15F2)): (+39-fold)
- fold increase of frequency of colony formation ([1]; clone b3p4-c12 (17E2)): (+74-fold)
- fold increase of frequency of colony formation ([1]; clone b3p4-d10 (14E5)): (+88-fold)
- fold increase of frequency of colony formation ([1]; clone b3p4-d12 (1C3)): (+82-fold)
- fold increase of frequency of colony formation ([1]; clone b3p4-e1 (2G3)): (+65-fold)
- fold increase of frequency of colony formation ([1]; clone b3p4-e3 (15D3)): (+73-fold)
- fold increase of frequency of colony formation ([1]; clone b3p4-e7 (12C1)): (+43-fold)
- fold increase of frequency of colony formation ([1]; clone b3p4-f2 (4E1)): (+55-fold)
- fold increase of frequency of colony formation ([1]; clone b3p4-f6 (7E3)): (+48-fold)
- fold increase of frequency of colony formation ([1]; clone b3p4-f10 (8A4)): (+81-fold)
- fold increase of frequency of colony formation ([1]; clone b3p4-g3 (1C3)): (+81-fold)
- fold increase of frequency of colony formation ([1]; clone b3p4-g8 (10C1)): (+75-fold)
- fold increase of frequency of colony formation ([1]; clone b3p4-g9 (2C2)): (+65-fold)
- fold increase of frequency of colony formation ([1]; clone b3p4-h11 (8A1.1)): (+65-fold)
- survival of mutant ES cells in media containing 2.0 mg/ml G418 ([1]; ES cells heterozygous for Xrcc5 entrapment mutation, 4 hours with 0.5 mM methyl-nitrosourea, 0.25 mM hydroxyurea or 100 ng/ml diepoxybutane): enhances the survival
- overall extent of LOH induced ([1]; single exposure to non-toxic levels): ~1 % of the genome
- Ratio of Freq. TK loss ([2]; Table 2, C8TK1mN and C8TK1sN, Treatment none): 2.6
- Ratio of Freq. TK loss ([2]; Table 2, C8TK1sN and C8TK1mN, Treatment MNU): 1.8
- Freq. TK loss ([2]; Table 4, clone printed C8TK1mN (EL LOH induced by MNU), Treatment MNU): 4.5 × 10^−4
- Freq. TK loss ([2]; Table 4, clone printed C8TK1mN (EL LOH induced by MNU, TK+ EL−/−), Treatment none): 1.3 × 10^−5
- Freq. TK loss ([2]; Table 4, clone printed C8TK1sN (Spont. EL LOH), Treatment MNU): 2.9 × 10^−4
- Ratio of Freq. TK loss ([2]; Table 4, printed C8TK1mN and C8TK1sN, Treatment none): 2.4
- Ratio of Freq. TK loss ([2]; Table 4, printed C8TK1sN and C8TK1mN, Treatment MNU): 1.6
